Measured values published in patent publication US20250228823A1, “PHARMACEUTICAL COMPOSITIONS COMPRISING (3-(1-(1H-IMIDAZOL-4-YL)ETHYL)-2-METHYLPHENYL)METHANOL” (Allergan, Inc., priority 2010, published 2025).

Tests used:
[1] = target: T1, human alpha 2A receptor (Homo sapiens, UniProt P08913); settings: FLIPR agonist assay, HEK 293 cells with chimeric G protein; norepinephrine is the standard full agonist
T1 sequence (P08913 1-465): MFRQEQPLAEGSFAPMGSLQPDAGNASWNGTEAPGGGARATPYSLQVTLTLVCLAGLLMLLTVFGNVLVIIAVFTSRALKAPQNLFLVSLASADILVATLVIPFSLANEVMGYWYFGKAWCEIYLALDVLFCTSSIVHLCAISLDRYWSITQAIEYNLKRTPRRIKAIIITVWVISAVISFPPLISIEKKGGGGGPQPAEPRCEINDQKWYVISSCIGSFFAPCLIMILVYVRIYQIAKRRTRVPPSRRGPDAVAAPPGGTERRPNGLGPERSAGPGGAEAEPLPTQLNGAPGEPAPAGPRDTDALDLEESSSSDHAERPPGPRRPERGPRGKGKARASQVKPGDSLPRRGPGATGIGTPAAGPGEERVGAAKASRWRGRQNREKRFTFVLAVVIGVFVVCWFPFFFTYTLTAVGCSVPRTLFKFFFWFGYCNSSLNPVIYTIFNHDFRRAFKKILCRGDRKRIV
Description: (§1) HEK 293 cells stably expressing the bovine a1A receptor, human alpha 2A receptor and the chimeric G protein Gai5, are plated in poly-D-lysine coated 384-well plates at 20,000-40,000 cells per well and grown overnight in DMEM supplemented with 10% fetal bovine serum. For FLIPR (fluorometric image plate reader) evaluation, cells are washed twice with HBSS/HEPES Buffer (1× Hanks Buffered Salt Solution, 20 mM HEPES, pH 7.4) prior to the addition of Fluo-4-AM (4 uM Fluo-4-AM, 0.04% pluronic acid in HBSS/HEPES Buffer), a calcium-sensitive dye. Cells are loaded with dye for 40 minutes at 37° C., then washed 4 times with HBSS/HEPES Buffer. For both the agonist and antagonist assay, the test compounds are tested between 0.64 nM-10,000 nM. For an agonist assay, the reaction is initiated by the addition of the appropriate dilutions of compounds and the transient calcium signal captured. The peak height of the calcium curve is determined and utilized for calculation of EC50 and efficacy using ActivityBase. Norepinephrine is the standard full agonist used for evaluating alpha-1 and alpha-2 receptor activity.

[2] = test system: Normotensive male Dutch-Belted rabbits (IOP); settings: for IOP effect in the contralateral eye: single topical drop onto right eye, untreated eye
Description: The experimental animals used, were Normotensive male Dutch-Belted rabbits (Myrtle's Rabbitry) over 6 months in age (n=4/compound/dose screened). A single drop (50 μl) of the drug formulation, was administered topically by pipette onto the right eye (treated eye) at approximately 0700 hours. IOP of the rabbits (treated and untreated eyes) was measured 0 hours before and at 0.5, 1, 2, 3, 4, 6 and 8 hours after topical eyedrop administration. IOP at the time of eyedrop administration (0 hours) was used as a baseline value. Prior to the tonometric measurements, 0.05% proparacaine (50 μl) was administered to each eye. Tonometric IOP measurements were obtained with a Mentor Pneumontonmeter. Additionally, all studies were masked. At least 1 week of wash-out time was allowed for each rabbit between dosings. All animals were examined for sedation, ocular irritation, and changes in pupil diameter throughout the course of the experiments.

[3] = target: T2, bovine a1A receptor (Bos taurus, UniProt P18130); assay: cell-based; settings: for a1A efficacy: FLIPR agonist assay, HEK 293 cells, norepinephrine is the standard full agonist
T2 sequence (P18130 1-466): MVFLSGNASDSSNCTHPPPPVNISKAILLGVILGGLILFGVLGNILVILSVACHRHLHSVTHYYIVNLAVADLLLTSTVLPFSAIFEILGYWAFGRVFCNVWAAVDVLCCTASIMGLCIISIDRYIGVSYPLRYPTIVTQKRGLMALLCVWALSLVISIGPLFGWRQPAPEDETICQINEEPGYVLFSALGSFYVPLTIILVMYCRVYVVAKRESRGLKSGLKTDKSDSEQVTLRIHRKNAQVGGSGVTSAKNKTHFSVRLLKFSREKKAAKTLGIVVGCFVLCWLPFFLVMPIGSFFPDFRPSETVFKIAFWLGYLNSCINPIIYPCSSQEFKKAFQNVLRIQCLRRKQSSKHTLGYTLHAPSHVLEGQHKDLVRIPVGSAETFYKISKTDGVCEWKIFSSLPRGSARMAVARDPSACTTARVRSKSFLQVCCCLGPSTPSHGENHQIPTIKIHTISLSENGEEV
Description: as §1

| SMILES | a2A efficacy [1] | duration of IOP lowering in the treated eye ([2]; 0.15% concentration, single topical drop (50 μl), DB Rabbits) | IOP lowering efficacy compared with brimonidine ([2]; FIG. 1) | intraocular pressure duration compared with brimonidine ([2]; FIG. 1) | IOP effect in the contralateral eye ([2]; DB Rabbits) | EC50 [3] [nM] | a1A efficacy [3] | IOP effect at 6 hrs in the treated eye ([2]; 0.15%, single topical drop, DB Rabbits, 6 hrs) |
| --- | --- | --- | --- | --- | --- | --- | --- | --- |
| Cc1c(CO)cccc1[C@H](C)c1c[nH]cn1 [Compound 1, (S)-[3-(1-(1H-imidazol-4-yl)ethyl)-2-methylphenyl] methanol] | 0.9 | at least 6 hours | comparable efficacy to brimonidine | longer intraocular pressure duration than brimonidine | very little effect | 340 to 2400 | 0.7 | – |
| Brc1c(NC2=NCCN2)ccc2nccnc12 [Brimonidine, reference compound] | 0.95 | – | – | – | strong contralateral effect | 600 to 2400 | 0.3 | minimal |
